These are literature values, as cited in patent US20120142730A1 (priority 2010, published 2012).

For the series the following is noted: Noseworthy, 2000; cited from earlier work.

In the case of `CN(C(=O)c1c(O)c2ccccc2n(C)c1=O)c1ccccc1` [roquinimex], the “Safety concerns previously seen” value is “serositis, cardiovascular events and thrombosis”.
